From the supplement of paper PMC10627819

Legend:
[1] = system: S. pneumoniae D39V; assay: fitness (endpoint OD595 vs no drug) (fraction); higher = more growth
How it was run: (§1)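 Each well of a 384-well plate received 30 µl of culture at OD595 0.01, or 55 µl for S. pneumoniae. TSB, LB Lennox or CY served as media at 37 °C. OD595 was taken every 30 min for 14 h and corrected by subtracting the first reading. Fitness is the optical density at stationary-phase entry divided by the robust mean of no-drug controls, capped at 1.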

[2] = system: B. subtilis 168; assay: as above
How it was run: as §1

[3] = system: S. pneumoniae D39V; assay: Bliss interaction score (quartile over a dose matrix) (fitness difference); higher = more antagonism (negative = synergy)
How it was run: (§2)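 Each plate was normalised to the robust mean of its own no-drug wells, using OD595 at entry into stationary phase, with values capped at 1. This normalised growth is the fitness value. The Bliss score is the difference between observed and product-expected fitness, with single-drug fitness inferred from the combination data and quartiles taken over technical, biological and donor/recipient replicates.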

[4] = system: S. aureus Newman; assay: as above
How it was run: as §2

[5] = system: S. aureus DSM 20231; assay: as above
How it was run: as §2

[6] = system: B. subtilis 168; assay: as above
How it was run: as §2
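Throughout, for Bliss interaction score (quartile over a dose matrix): first quartile when negative (synergy) and third quartile when positive (antagonism).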

C[C@H]1COc2c(N3CCN(C)CC3)c(F)cc3c(=O)c(C(=O)O)cn1c23 [Levofloxacin] + COc1ccc(C[C@H](N)C(=O)N[C@H]2[C@@H](O)[C@H](n3cnc4c(N(C)C)ncnc43)O[C@@H]2CO)cc1 [Puromycin]
fitness
Details | first compound 0.0312 µg/mL | first compound 0.0625 µg/mL | first compound 0.125 µg/mL | first compound 0.1725 µg/mL | first compound 0.345 µg/mL | first compound 0.69 µg/mL
[1], partner 1 µg/mL | – | – | – | 0.981 | 0.919 | 0.689
[1], partner 2 µg/mL | – | – | – | 0.944 | 0.895 | 0.661
[1], partner 4 µg/mL | – | – | – | 0.796 | 0.8 | 0.599
[2], partner 0.39 µg/mL | 0.0269 | 0.0447 | 0.0177 | – | – | –
[2], partner 0.78 µg/mL | 0.0422 | 0.0467 | 0.0355 | – | – | –
[2], partner 1.56 µg/mL | 0.0415 | 0.0483 | 0.0409 | – | – | –

fitness, one replicate
Details | first compound 0.001 µg/mL | first compound 0.002 µg/mL | first compound 0.0039 µg/mL | first compound 0.2 µg/mL | first compound 0.4 µg/mL | first compound 0.8 µg/mL
[1], partner 1 µg/mL | – | – | – | 0.828 | 0.672 | 0.288
[1], partner 2 µg/mL | – | – | – | 0.854 | 0.741 | 0.309
[1], partner 4 µg/mL | – | – | – | 0.777 | 0.628 | 0.205
[2], partner 0.39 µg/mL | 0.961 | 0.909 | 0.834 | – | – | –
[2], partner 0.78 µg/mL | 0.949 | 0.967 | 0.884 | – | – | –
[2], partner 1.56 µg/mL | 0.934 | 0.909 | 0.868 | – | – | –

Details | Bliss interaction score
[3] | 0.0705
[4] | -0.0822
[5] | -0.0463
[6] | -0.0129

CN(C)C(=O)C(CCN1CCC(O)(c2ccc(Cl)cc2)CC1)(c1ccccc1)c1ccccc1 [Loperamide] + CC1=C\[C@@H](O)CC(=O)Cc2nc(co2)C(=O)N2CCC=C2C(=O)O[C@H](C(C)C)[C@H](C)/C=C/C(=O)NC\C=C\1 [Virginiamycin M1]
Details | fitness
[1], first compound 17.14 µg/mL, partner 0.5 µg/mL | ≥ 1
[1], first compound 17.14 µg/mL, partner 1 µg/mL | ≥ 1
[1], first compound 17.14 µg/mL, partner 2 µg/mL | ≥ 1
[1], first compound 20 µg/mL, partner 2 µg/mL | ≥ 1
[1], first compound 34.28 µg/mL, partner 0.5 µg/mL | ≥ 1
[1], first compound 34.28 µg/mL, partner 1 µg/mL | ≥ 1
[1], first compound 34.28 µg/mL, partner 2 µg/mL | ≥ 1
[1], first compound 40 µg/mL, partner 2 µg/mL | ≥ 1
[2], first compound 25 µg/mL, partner 0.0625 µg/mL | 0.809
[2], first compound 25 µg/mL, partner 0.125 µg/mL | 0.745
[2], first compound 25 µg/mL, partner 0.25 µg/mL | 0.755
[2], first compound 50 µg/mL, partner 0.0625 µg/mL | 0.0261
[2], first compound 50 µg/mL, partner 0.125 µg/mL | 0.0336
[2], first compound 50 µg/mL, partner 0.25 µg/mL | 0.0356
[2], first compound 100 µg/mL, partner 0.0625 µg/mL | 0.0228
[2], first compound 100 µg/mL, partner 0.125 µg/mL | 0.0378
[2], first compound 100 µg/mL, partner 0.25 µg/mL | 0.0328

fitness, [1], one replicate
Details | partner 0.15 µg/mL | partner 0.3 µg/mL | partner 0.5 µg/mL | partner 1 µg/mL | partner 2 µg/mL
first compound 20 µg/mL | ≥ 1 | 0.999 | ≥ 1 | ≥ 1 | –
first compound 40 µg/mL | ≥ 1 | ≥ 1 | ≥ 1 | ≥ 1 | –
first compound 68.57 µg/mL | – | – | ≥ 1 | ≥ 1 | ≥ 1
first compound 80 µg/mL | ≥ 1 | ≥ 1 | 0.348 | 0.0702 | –

Details | Bliss interaction score
[3] | 0.0883
[4] | 0.0415
[5] | -0.211
[6] | -0.0999

C[C@H]1COc2c(N3CCN(C)CC3)c(F)cc3c(=O)c(C(=O)O)cn1c23 [Levofloxacin] + Cc1onc(-c2ccccc2)c1C(=O)N[C@@H]1C(=O)N2[C@@H]1SC(C)(C)[C@@H]2C(=O)O [Oxacillin]
Details | fitness
[1], first compound 0.1725 µg/mL, partner 0.01 µg/mL | 0.972
[1], first compound 0.1725 µg/mL, partner 0.02 µg/mL | 0.917
[1], first compound 0.2 µg/mL, partner 0.01 µg/mL | 0.928
[1], first compound 0.2 µg/mL, partner 0.02 µg/mL | 0.898
[1], first compound 0.2 µg/mL, partner 0.04 µg/mL | 0.495
[1], first compound 0.345 µg/mL, partner 0.01 µg/mL | 0.9
[1], first compound 0.345 µg/mL, partner 0.02 µg/mL | 0.894
[1], first compound 0.4 µg/mL, partner 0.01 µg/mL | 0.809
[1], first compound 0.4 µg/mL, partner 0.02 µg/mL | 0.785
[1], first compound 0.4 µg/mL, partner 0.04 µg/mL | 0.402
[1], first compound 0.69 µg/mL, partner 0.01 µg/mL | 0.704
[1], first compound 0.69 µg/mL, partner 0.02 µg/mL | 0.571
[1], first compound 0.8 µg/mL, partner 0.04 µg/mL | 0.24
[2], first compound 0.0312 µg/mL, partner 0.002 µg/mL | 0.0448
[2], first compound 0.0312 µg/mL, partner 0.004 µg/mL | 0.0387
[2], first compound 0.0312 µg/mL, partner 0.008 µg/mL | 0.0483
[2], first compound 0.0625 µg/mL, partner 0.002 µg/mL | 0.0429
[2], first compound 0.0625 µg/mL, partner 0.004 µg/mL | 0.0548
[2], first compound 0.0625 µg/mL, partner 0.008 µg/mL | 0.0559
[2], first compound 0.125 µg/mL, partner 0.002 µg/mL | 0.0397
[2], first compound 0.125 µg/mL, partner 0.004 µg/mL | 0.0414
[2], first compound 0.125 µg/mL, partner 0.008 µg/mL | 0.0574

fitness, [2], one replicate
Details | partner 0.0078 µg/mL | partner 0.0155 µg/mL | partner 0.031 µg/mL | partner 0.075 µg/mL | partner 0.15 µg/mL | partner 0.3 µg/mL
first compound 0.001 µg/mL | 0.942 | 0.965 | 0.932 | – | – | –
first compound 0.002 µg/mL | 0.898 | 0.936 | 0.876 | 0.476 | 0.0412 | 0.0517
first compound 0.0039 µg/mL | 0.832 | 0.849 | 0.741 | 0.416 | 0.038 | 0.0324
first compound 0.0078 µg/mL | – | – | – | 0.592 | 0.0582 | 0.0577

Details | Bliss interaction score
[3] | 0.11
[4] | 0.0619
[5] | 0.0488
[6] | -0.0169

CN(C)C(=O)C(CCN1CCC(O)(c2ccc(Cl)cc2)CC1)(c1ccccc1)c1ccccc1 [Loperamide] + Cc1ncc([N+](=O)[O-])n1CCO [Metronidazole]
Details | fitness
[1], first compound 17.14 µg/mL, partner 1.25 µg/mL | 0.983
[1], first compound 17.14 µg/mL, partner 2.5 µg/mL | ≥ 1
[1], first compound 17.14 µg/mL, partner 5 µg/mL | 0.99
[1], first compound 20 µg/mL, partner 1.073 µg/mL | ≥ 1
[1], first compound 20 µg/mL, partner 2.145 µg/mL | 0.921
[1], first compound 20 µg/mL, partner 4.29 µg/mL | 0.973
[1], first compound 34.28 µg/mL, partner 1.25 µg/mL | 0.99
[1], first compound 34.28 µg/mL, partner 2.5 µg/mL | ≥ 1
[1], first compound 34.28 µg/mL, partner 5 µg/mL | 0.979
[1], first compound 40 µg/mL, partner 1.073 µg/mL | ≥ 1
[1], first compound 40 µg/mL, partner 4.29 µg/mL | 0.96
[1], first compound 80 µg/mL, partner 1.073 µg/mL | 0.938
[1], first compound 80 µg/mL, partner 2.145 µg/mL | 0.898
[1], first compound 80 µg/mL, partner 4.29 µg/mL | 0.95
[2], first compound 25 µg/mL, partner 0.625 µg/mL | 0.918
[2], first compound 25 µg/mL, partner 1.25 µg/mL | 0.891
[2], first compound 25 µg/mL, partner 2.5 µg/mL | 0.895
[2], first compound 100 µg/mL, partner 1.25 µg/mL | 0.214
[2], first compound 100 µg/mL, partner 2.5 µg/mL | 0.203

[1], first compound 68.57 µg/mL, one replicate
Details | fitness
partner 1.25 µg/mL | ≥ 1
partner 2.5 µg/mL | 0.944
partner 5 µg/mL | ≥ 1

Details | Bliss interaction score
[3] | 0.0877
[4] | 0.064
[5] | 0.0627
[6] | 0.268
